One test concerns the target T1, iNOS (Mus musculus, UniProt P29477).
T1 construct: iNOS was isolated from interferon-γ and lipopolysaacharide(LPS) stimulated mouse macrophage cells (RAW 264.7 cells); endogenous in cells; host or cells: RAW 264.7 mouse macrophage cells, induced overnight with interferon-γ and LPS; lysate partially purified on ADP sepharose
Put plainly: Nitric oxide synthase activity assay (Griess reagent), iNOS partially purified from interferon-γ/LPS stimulated RAW 264.7 cells. Format: biochemical. Particulars: for IC50: 90 minutes at 37° C.

The target of another test is nNOS (Homo sapiens, UniProt P29475). Put plainly: Nitric oxide synthase activity assay, nNOS. Format: biochemical.
Chain of nNOS (P29475 whole entry): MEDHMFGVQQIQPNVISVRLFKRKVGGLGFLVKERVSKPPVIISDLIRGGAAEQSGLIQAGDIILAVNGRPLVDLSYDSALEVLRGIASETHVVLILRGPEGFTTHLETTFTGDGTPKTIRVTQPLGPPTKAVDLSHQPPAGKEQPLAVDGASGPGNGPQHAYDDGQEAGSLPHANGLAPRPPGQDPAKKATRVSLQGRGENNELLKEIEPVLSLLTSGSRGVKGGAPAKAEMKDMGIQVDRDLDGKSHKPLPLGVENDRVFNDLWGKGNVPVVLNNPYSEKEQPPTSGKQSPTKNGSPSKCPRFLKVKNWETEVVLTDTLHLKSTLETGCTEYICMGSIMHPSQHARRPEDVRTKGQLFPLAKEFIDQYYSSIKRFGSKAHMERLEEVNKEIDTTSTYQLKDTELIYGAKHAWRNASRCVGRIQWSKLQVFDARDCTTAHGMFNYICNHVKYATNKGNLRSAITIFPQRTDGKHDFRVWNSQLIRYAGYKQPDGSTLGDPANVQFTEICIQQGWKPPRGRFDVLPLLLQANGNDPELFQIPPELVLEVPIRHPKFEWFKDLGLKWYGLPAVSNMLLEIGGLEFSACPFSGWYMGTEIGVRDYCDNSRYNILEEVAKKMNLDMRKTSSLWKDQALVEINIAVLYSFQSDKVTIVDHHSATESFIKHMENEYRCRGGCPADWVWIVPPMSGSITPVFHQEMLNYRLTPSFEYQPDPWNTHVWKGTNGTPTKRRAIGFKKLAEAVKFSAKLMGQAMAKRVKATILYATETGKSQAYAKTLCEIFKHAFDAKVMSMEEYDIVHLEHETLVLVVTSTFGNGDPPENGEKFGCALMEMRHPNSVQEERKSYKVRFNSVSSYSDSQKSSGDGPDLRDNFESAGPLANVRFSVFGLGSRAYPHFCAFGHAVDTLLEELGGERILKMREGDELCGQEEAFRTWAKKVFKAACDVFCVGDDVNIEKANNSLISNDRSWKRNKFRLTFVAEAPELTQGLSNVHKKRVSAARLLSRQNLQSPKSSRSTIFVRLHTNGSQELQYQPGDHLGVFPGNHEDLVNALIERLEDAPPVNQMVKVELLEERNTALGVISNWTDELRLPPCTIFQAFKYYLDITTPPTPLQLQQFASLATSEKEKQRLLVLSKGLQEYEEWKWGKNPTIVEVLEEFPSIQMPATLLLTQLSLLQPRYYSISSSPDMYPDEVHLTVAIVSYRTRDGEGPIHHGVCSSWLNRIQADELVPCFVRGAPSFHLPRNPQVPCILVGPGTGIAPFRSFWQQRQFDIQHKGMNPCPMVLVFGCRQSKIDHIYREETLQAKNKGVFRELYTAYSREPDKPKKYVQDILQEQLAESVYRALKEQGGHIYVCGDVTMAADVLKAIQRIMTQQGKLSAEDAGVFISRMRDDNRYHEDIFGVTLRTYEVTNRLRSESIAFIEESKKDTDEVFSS

Protocol for iNOS: Thus, iNOS was isolated from interferon-γ and lipopolysaacharide(LPS) stimulated mouse macrophage cells (RAW 264.7 cells). RAW cells were incubated overnight with interferon-γ and LPS. A lysate fraction was prepared by lysing the harvested cells in liquid nitrogen and thawing by incubation in a 37° C. water bath and run over an ADP sepharose column for partial purification.
(§1) Nitric Oxide Synthase activity was assayed by adding 10 μL of crude lysate 10 μL of substrate and 10 μL of a selected Compound as depicted in Formula I in DMSO to 70 μL of assay buffer in a 96-well microtiter plate. The wells were mixed gently and incubated for 90 minutes at 37° C. The reaction was stopped by adding 2 units of L-lactic dehydrogenase (5 μL of stock solution) and 5 μmole of sodium pyruvate (10 μL of stock solution). The solution was incubated for an additional 15 minutes at 37° C. 100 μL of Griess reagent was added and read absorbance at 560 nm.
Protocol for nNOS: as §1

Regarding `O=C1C=C(Nc2ccccc2)c2ccccc2C1=O` [Example 1], on iNOS, the IC50 turned out to be 27 µM. As to `CCN(C1=CC(=O)C(=O)c2ccccc21)c1ccccc1` [Example 2], on iNOS, half-maximal inhibition (IC50) required 16 µM.

Compound `O=C1C=C(NCCCn2ccnc2)c2ccccc2C1=O` [Example 3] returned a concentration for half-maximal inhibition (IC50) on iNOS of 41 µM.

`O=C1C=C(NCCN2CCOCC2)c2ccccc2C1=O` [Example 4] registered an IC50 against iNOS of 45 µM. As for `CC1CCCCN1CCCNC1=CC(=O)C(=O)c2ccccc21` (stereo not shown) [Example 5], at iNOS, the IC50 was determined as 12 µM. In the case of `CN1CCN(C2=CC(=O)C(=O)c3ccccc32)CC1` [Example 6], the IC50 on iNOS was 5.4 µM; against nNOS it was 2 µM. Regarding `CCN1CCN(C2=CC(=O)C(=O)c3ccccc32)CC1` [Example 7], at iNOS, half-maximal inhibition (IC50) required 8 µM.

At iNOS, `O=C1C=C(N2CCCc3ccccc32)c2ccccc2C1=O` [Example 8] registered an IC50 of 13 µM. Same read-out and setting: then `O=C1C=C(N2CCc3ccccc32)c2ccccc2C1=O` [Example 9], with 17 µM; and `COC(=O)[C@@H]1CCCN1C1=CC(=O)C(=O)c2ccccc21` [Example 10], with 44 µM. As to `O=C1C=C(N2CCNCC2)c2cc(O)ccc2C1=O` [Example 11], the inhibition at 10 µM at iNOS (@ 10 μM, read-out: Percentage Inhibition iNOS) stood at 34%. For the compound `O=C1C=C(N2CCNCC2)c2ccccc2C1=O` [Example 12], the IC50 against iNOS is 9.9 µM; against nNOS, 2.1 µM.

`O=C1C=C(n2cncn2)c2ccccc2C1=O` [Example 13]: at iNOS, the IC50 came to 7.8 µM.

On iNOS, `O=C1C=C(c2ccc[nH]2)c2ccccc2C1=O` [Example 14] had a half-maximal inhibitory concentration (IC50) of 7.4 µM. In the case of `CC(C)(C)OC(=O)NCCNC1=CC(=O)C(=O)c2ccccc21` [Example 15], the values for the half-inhibitory concentration (IC50) against iNOS and against nNOS were 3.8 µM and 1.1 µM, respectively. For the compound `NCCNC1=CC(=O)C(=O)c2ccccc21` [Example 16], the results for the concentration for half-maximal inhibition (IC50) on iNOS and against nNOS were 11.2 µM and 3.2 µM, respectively. For the compound `CC(=O)N1CCN(C2=CC(=O)C(=O)c3ccccc32)CC1` [Example 17], the IC50 against iNOS came to 5.4 µM. As for `O=C1C=C(N2CCN(C(=O)c3ccc([N+](=O)[O-])cc3)CC2)c2ccccc2C1=O` [Example 18], the IC50 came out at 6.2 µM at iNOS and 1.2 µM on nNOS.

For `O=C1C=C(N2CCN(C(=O)NCc3ccccc3)CC2)c2ccccc2C1=O` [Example 19], the results for the half-inhibitory concentration (IC50) on iNOS and at nNOS were 2.2 µM and 2.1 µM, respectively. Taken in the same sequence, the figures for `N=C(N)N1CCN(C2=CC(=O)C(=O)c3ccccc32)CC1` [Example 20] were 0.67 µM and 0.57 µM. Taken in the same sequence, the figures for `COC(=O)[C@H](CCC(=O)N1CCN(C2=CC(=O)C(=O)c3ccccc32)CC1)NC(=O)OCC1c2ccccc2-c2ccccc21` [Example 21] were 15.6 µM and 1.9 µM. Taken in the same sequence, the figures for `O=C1C(=O)c2c(nc3ccccn23)-c2ccccc21` [Example 24] were 2.3 µM and 0.27 µM.
